The target of this assay is T1, airway epithelial sodium currents (epithelial sodium channel, ENaC) (Canis lupus familiaris, UniProt A0A8I3MKE6+A0A8I3Q679+Q95165).
T1 construct: endogenous in cells; host or cells: primary canine airway epithelial cells cultured at air-liquid interface, mounted in Ussing chambers
T1 sequence (A0A8I3Q679 1-649): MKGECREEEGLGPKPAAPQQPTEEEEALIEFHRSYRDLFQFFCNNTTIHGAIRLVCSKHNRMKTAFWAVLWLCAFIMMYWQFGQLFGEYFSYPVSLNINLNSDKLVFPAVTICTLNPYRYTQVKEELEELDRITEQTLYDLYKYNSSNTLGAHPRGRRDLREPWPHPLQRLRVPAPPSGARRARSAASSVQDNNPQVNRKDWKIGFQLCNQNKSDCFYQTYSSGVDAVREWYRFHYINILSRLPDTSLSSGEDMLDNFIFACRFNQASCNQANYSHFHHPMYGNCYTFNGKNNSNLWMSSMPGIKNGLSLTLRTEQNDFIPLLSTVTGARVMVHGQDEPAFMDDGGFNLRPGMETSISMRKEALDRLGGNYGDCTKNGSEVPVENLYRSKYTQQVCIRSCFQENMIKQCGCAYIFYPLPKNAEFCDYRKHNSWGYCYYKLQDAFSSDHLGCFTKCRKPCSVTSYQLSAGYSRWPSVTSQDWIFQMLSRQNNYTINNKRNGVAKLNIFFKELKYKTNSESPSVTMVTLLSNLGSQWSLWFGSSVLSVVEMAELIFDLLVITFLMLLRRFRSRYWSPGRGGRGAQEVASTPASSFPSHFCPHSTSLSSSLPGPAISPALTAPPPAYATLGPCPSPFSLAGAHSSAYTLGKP
T1 sequence (Q95165 1-641): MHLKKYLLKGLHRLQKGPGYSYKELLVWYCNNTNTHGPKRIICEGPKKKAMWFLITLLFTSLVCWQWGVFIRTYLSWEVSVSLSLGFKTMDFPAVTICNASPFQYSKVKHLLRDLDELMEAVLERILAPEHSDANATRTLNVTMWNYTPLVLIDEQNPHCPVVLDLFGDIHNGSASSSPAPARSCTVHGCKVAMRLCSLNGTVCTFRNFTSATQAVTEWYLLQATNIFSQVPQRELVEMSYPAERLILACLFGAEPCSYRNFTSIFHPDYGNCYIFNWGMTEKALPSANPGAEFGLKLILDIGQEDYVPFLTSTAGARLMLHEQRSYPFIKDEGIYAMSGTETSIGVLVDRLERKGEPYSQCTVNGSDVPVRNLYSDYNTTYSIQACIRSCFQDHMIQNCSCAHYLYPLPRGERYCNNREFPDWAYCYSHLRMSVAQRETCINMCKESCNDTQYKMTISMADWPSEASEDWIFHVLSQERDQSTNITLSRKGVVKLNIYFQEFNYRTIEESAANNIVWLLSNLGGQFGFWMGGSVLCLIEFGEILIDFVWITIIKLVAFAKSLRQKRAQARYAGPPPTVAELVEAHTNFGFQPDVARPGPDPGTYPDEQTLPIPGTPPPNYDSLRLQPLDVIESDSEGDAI
T1 sequence (A0A8I3MKE6 1-646): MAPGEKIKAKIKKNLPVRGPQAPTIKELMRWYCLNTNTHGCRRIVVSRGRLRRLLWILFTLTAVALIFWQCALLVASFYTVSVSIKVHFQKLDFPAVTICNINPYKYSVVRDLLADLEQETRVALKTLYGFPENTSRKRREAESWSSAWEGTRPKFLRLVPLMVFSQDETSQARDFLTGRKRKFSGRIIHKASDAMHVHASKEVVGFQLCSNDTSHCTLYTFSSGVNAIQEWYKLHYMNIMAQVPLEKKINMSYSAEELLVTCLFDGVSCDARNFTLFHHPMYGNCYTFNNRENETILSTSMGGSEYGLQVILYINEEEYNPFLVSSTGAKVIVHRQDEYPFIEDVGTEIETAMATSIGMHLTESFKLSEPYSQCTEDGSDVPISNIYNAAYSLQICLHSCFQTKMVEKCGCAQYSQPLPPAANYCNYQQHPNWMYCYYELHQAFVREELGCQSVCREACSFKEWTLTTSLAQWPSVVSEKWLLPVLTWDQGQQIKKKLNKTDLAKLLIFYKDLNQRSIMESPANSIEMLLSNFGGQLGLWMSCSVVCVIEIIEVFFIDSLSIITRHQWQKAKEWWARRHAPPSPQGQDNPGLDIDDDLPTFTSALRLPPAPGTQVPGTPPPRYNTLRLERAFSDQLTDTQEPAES
The assay can be described thus: In vitro measure of sodium channel blocking activity (short circuit current, Ussing chambers). Format: cell-based. The following applies: freshly excised cells from canine airways; lumenal drug addition; short circuit current (ISC). Here is the method: One assay used to assess mechanism of action and/or potency of the compounds of the present invention involves the determination of lumenal drug inhibition of airway epithelial sodium currents measured under short circuit current (ISC) using airway epithelial monolayers mounted in Ussing chambers. Cells obtained from freshly excised human, dog, sheep or rodent airways are seeded onto porous 0.4 micron Snapwell™ Inserts (CoStar), cultured at air-liquid interface (ALI) conditions in hormonally defined media, and assayed for sodium transport activity (ISC) while bathed in Krebs Bicarbonate Ringer (KBR) in Using chambers. All test drug additions are to the lumenal bath with half-log dose addition protocols (from 1×10^−11 M to 3×10^−5 M), and the cumulative change in ISC (inhibition) recorded. […] After the maximal concentration (5×10^−5 M) is administered, the lumenal bath is exchanged three times with fresh drug-free KBR solution, and the resultant ISC measured after each wash for approximately 5 minutes in duration. […] All data from the voltage clamps are collected via a computer interface and analyzed off-line. Dose-effect relationships for all compounds are considered and analyzed by the Prism 3.0 program. IC50 values, maximal effective concentrations, and reversibility are calculated and compared to amiloride and benzamil as positive controls. […]

Each structure is given as a SMILES string.

Usually IC50 stands for the point on the concentration scale where inhibition reaches its midpoint. Compound `N=C(N)NCCCC[C@H](NC[C@H](O)[C@@H](O)[C@H](O)[C@H](O)CO)C(=O)NCCOc1ccc(CCCCNC(=N)NC(=O)c2nc(Cl)c(N)nc2N)cc1` [Compound I, 3,5-diamino-6-chloro-N—(N-(4-(4-(2-((S)-6-guanidino-2-((2S,3R,4R,5R)-2,3,4,5,6-pentahydroxyhexylamino)hexanamido)ethoxy)phenyl)butyl)carbamimidoyl)pyrazine-2-carboxamide] had an IC50 of 13.2 nM.

The values above are taken from US9856224B2, “Stable sodium channel blockers” (PARION SCIENCES, INC., priority 2014, dated 2018).
